The values below come from patent US7846959B2, “Raf modulators and methods of use” (Exelixis, Inc., priority 2004, dated 2010).

Some results are limits rather than exact numbers.

For test [1], the target named is c-Raf (Homo sapiens, UniProt P04049). The test can be described thus: Luciferase-coupled chemiluminescence kinase assay (ATP consumption), c-Raf. Format: biochemical. The settings on record: read-out: cRaf-1 IC50. The procedure, abridged:
(§1)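 Pre-incub. kinase […] + cpd, 30 min RT (20 mM Tris pH 7.5, 10 mM MgCl2, 0.03% TX-100, 1 mM DTT). Start w/ ATP, 3 h ambient. Luciferase-luciferin mix added and luminescence read. Total ATP use 25-60%. IC50 derived.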

For test [2], the target named is B-Raf (Homo sapiens, UniProt P15056). The test can be described thus: Luciferase-coupled chemiluminescence kinase assay (ATP consumption), B-Raf. The class given is biochemical. The following applies: read-out: bRaf IC50. The procedure, abridged: as §1
B-Raf, sequence (P15056 whole entry): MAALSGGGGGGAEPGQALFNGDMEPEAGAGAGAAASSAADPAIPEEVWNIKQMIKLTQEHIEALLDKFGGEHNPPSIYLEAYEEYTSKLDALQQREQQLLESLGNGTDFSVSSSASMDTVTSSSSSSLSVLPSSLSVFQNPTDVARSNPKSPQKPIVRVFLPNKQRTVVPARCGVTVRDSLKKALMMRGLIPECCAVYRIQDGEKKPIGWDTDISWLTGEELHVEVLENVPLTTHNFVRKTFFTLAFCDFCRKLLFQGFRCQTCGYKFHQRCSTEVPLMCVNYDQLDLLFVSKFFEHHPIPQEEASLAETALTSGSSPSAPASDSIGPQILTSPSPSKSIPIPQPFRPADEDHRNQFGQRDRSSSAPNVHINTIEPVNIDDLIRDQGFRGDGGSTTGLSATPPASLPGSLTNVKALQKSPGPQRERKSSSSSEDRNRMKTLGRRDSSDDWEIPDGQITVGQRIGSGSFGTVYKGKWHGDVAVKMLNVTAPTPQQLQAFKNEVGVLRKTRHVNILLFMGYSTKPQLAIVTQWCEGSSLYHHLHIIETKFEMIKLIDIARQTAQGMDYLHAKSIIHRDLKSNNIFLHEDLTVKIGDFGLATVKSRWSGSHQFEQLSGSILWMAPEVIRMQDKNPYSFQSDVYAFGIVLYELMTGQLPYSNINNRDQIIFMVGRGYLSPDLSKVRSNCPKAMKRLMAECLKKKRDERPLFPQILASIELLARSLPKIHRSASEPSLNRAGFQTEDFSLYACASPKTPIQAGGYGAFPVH

c-Raf, sequence (P04049 whole entry): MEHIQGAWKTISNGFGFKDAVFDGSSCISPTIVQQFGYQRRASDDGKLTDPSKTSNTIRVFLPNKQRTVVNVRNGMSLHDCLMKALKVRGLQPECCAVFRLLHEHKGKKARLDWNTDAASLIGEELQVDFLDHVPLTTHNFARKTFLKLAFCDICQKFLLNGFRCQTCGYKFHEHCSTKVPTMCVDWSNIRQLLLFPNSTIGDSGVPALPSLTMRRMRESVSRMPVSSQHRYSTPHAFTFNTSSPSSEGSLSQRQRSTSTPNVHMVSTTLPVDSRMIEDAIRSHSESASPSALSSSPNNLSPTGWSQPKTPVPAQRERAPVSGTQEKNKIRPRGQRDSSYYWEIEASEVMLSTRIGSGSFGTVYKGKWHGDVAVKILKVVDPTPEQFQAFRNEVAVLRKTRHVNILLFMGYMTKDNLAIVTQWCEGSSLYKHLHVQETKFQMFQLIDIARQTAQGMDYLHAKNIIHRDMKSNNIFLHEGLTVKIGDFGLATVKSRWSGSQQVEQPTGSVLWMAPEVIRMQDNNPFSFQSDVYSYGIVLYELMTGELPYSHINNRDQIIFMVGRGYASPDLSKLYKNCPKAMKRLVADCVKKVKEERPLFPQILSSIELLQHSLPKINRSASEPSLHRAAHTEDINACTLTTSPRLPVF

For `CCc1cccc(N2C(=O)c3ccccc3C2(O)c2ccc3[nH]c(NC(=O)OC)nc3c2)c1` (stereo not drawn) [Entry 178, methyl {5-[2-(3-ethylphenyl)-1-hydroxy-3-oxo-2,3-dihydro-1H-isoindol-1-yl]-1H-benzimidazol-2-yl}carbamate], the IC50 in test [1] and in test [2] was less than 0.1 µM each time.

Turning to `C#Cc1cccc(N2C(=O)c3ccccc3C2(O)c2ccc3[nH]c(NC(=O)OC)nc3c2)c1` (stereo not drawn) [Entry 179, methyl {5-[2-(3-ethynylphenyl)-1-hydroxy-3-oxo-2,3-dihydro-1H-isoindol-1-yl]-1H-benzimidazol-2-yl}carbamate], the IC50 in test [1] and in test [2] was less than 0.1 µM each time.

`COC(=O)Nc1nc2cc(C3(O)c4ccccc4C(=O)N3c3ccc(Cl)c(C)c3)ccc2[nH]1` (stereo not drawn) [Entry 180, methyl {5-[2-(4-chloro-3-methylphenyl)-1-hydroxy-3-oxo-2,3-dihydro-1H-isoindol-1-yl]-1H-benzimidazol-2-yl}carbamate]: the half-inhibitory concentration (IC50) in test [1] and in test [2] was less than 0.1 µM throughout.

Turning to `COC(=O)Nc1nc2cc(C3(O)c4ccccc4C(=O)N3C(C)c3cccc(C(F)(F)F)c3)ccc2[nH]1` (stereo not drawn) [Entry 181, methyl [5-(1-hydroxy-3-oxo-2-{1-[3-(trifluoromethyl)phenyl]ethyl}-2,3-dihydro-1H-isoindol-1-yl)-1H-benzimidazol-2-yl]carbamate], the IC50 in test [1] and in test [2] was 1 to 10 µM each time.

In the case of `CC[C@H](c1ccccc1)N1C(=O)c2ccccc2C1(O)c1ccc2[nH]c(NC(=O)OC)nc2c1` (stereo partly drawn) [Entry 182, methyl (5-{1-hydroxy-3-oxo-2-[(1R)-1-phenylpropyl]-2,3-dihydro-1H-isoindol-1-yl}-1H-benzimidazol-2-yl)carbamate], the IC50 in test [1] and in test [2] was 0.1 to 1 µM throughout.

With `COC(=O)Nc1nc2cc(C3(O)c4ccccc4C(=O)N3c3ccccc3OC(F)(F)F)ccc2[nH]1` (stereo not drawn) [Entry 183, methyl [5-(1-hydroxy-3-oxo-2-{2-[(trifluoromethyl)oxy]phenyl}-2,3-dihydro-1H-isoindol-1-yl)-1H-benzimidazol-2-yl]carbamate], the IC50 in test [1] is 0.1 to 1 µM; in test [2], less than 0.1 µM.

Consider `COC(=O)Nc1nc2cc(C3(O)c4ccccc4C(=O)N3c3cccc(F)c3F)ccc2[nH]1` (stereo not drawn) [Entry 184, methyl {5-[2-(2,3-difluorophenyl)-1-hydroxy-3-oxo-2,3-dihydro-1H-isoindol-1-yl]-1H-benzimidazol-2-yl}carbamate], for which the 50% inhibitory concentration (IC50) in test [1] and in test [2] was less than 0.1 µM in each case.

In the case of `O=C(Nc1nc2cc(C3(O)c4ccccc4C(=O)N3Cc3ccccc3)ccc2[nH]1)OC1CCCCC1` (stereo not drawn) [Entry 185, cyclohexyl {5-[1-hydroxy-3-oxo-2-(phenylmethyl)-2,3-dihydro-1H-isoindol-1-yl]-1H-benzimidazol-2-yl}carbamate], the IC50 in test [1] and in test [2] was 0.1 to 1 µM throughout.

For `O=C(Nc1nc2cc(C3(O)c4ccccc4C(=O)N3Cc3ccccc3)ccc2[nH]1)OCC1CCCO1` (stereo not drawn) [Entry 186, tetrahydrofuran-2-ylmethyl {5-[1-hydroxy-3-oxo-2-(phenylmethyl)-2,3-dihydro-1H-isoindol-1-yl]-1H-benzimidazol-2-yl}carbamate], the IC50 in test [1] and in test [2] was less than 0.1 µM in each case.

For `O=C(Nc1nc2cc(C3(O)c4ccccc4C(=O)N3Cc3ccccc3)ccc2[nH]1)OCC1CC1` (stereo not drawn) [Entry 187, cyclopropylmethyl {5-[1-hydroxy-3-oxo-2-(phenylmethyl)-2,3-dihydro-1H-isoindol-1-yl]-1H-benzimidazol-2-yl}carbamate], the concentration for half-maximal inhibition (IC50) in test [1] and in test [2] was less than 0.1 µM throughout.

On to `O=C(Nc1nc2cc(C3(O)c4ccccc4C(=O)N3Cc3ccccc3)ccc2[nH]1)N1CCOCC1` (stereo not drawn) [Entry 188, N-{5-[1-hydroxy-3-oxo-2-(phenylmethyl)-2,3-dihydro-1H-isoindol-1-yl]-1H-benzimidazol-2-yl}morpholine-4-carboxamide], for which the IC50 in test [1] was 0.1 to 1 µM; in test [2] it was 1 to 10 µM.

As to `COC(=O)Nc1nc2cc(C3(O)c4ccccc4C(=O)N3CC3CCCC3)ccc2[nH]1` (stereo not drawn) [Entry 189, methyl {5-[2-(cyclopentylmethyl)-1-hydroxy-3-oxo-2,3-dihydro-1H-isoindol-1-yl]-1H-benzimidazol-2-yl}carbamate], the IC50 in test [1] and in test [2] was less than 0.1 µM each time.

For `COC(=O)Nc1nc2cc(C3(O)c4ccccc4C(=O)N3c3cccc(C)c3C)ccc2[nH]1` (stereo not drawn) [Entry 190, methyl {5-[2-(2,3-dimethylphenyl)-1-hydroxy-3-oxo-2,3-dihydro-1H-isoindol-1-yl]-1H-benzimidazol-2-yl}carbamate], the IC50 in test [1] and in test [2] was less than 0.1 µM in each case.

`COC(=O)Nc1nc2cc(C3(O)c4ccccc4C(=O)N3C3CCc4ccccc43)ccc2[nH]1` (stereo not drawn) [Entry 191, methyl {5-[2-(2,3-dihydro-1H-inden-1-yl)-1-hydroxy-3-oxo-2,3-dihydro-1H-isoindol-1-yl]-1H-benzimidazol-2-yl}carbamate]: the IC50 in test [1] and in test [2] was less than 0.1 µM in each case.

For `COC(=O)Nc1nc2cc(C3(O)c4ccccc4C(=O)N3[C@H](C(=O)OC)C3CCCCC3)ccc2[nH]1` (stereo partly drawn) [Entry 192, methyl (2S)-cyclohexyl[1-hydroxy-1-(2-{[(methyloxy)carbonyl]amino}-1H-benzimidazol-5-yl)-3-oxo-1,3-dihydro-2H-isoindol-2-yl]ethanoate], the half-maximal inhibitory concentration (IC50) in test [1] and in test [2] was 1 to 10 µM each time.

For `COC(=O)Nc1nc2cc(C3(O)c4ccccc4C(=O)N3c3c(F)cccc3F)ccc2[nH]1` (stereo not drawn) [Entry 193, methyl {5-[2-(2,6-difluorophenyl)-1-hydroxy-3-oxo-2,3-dihydro-1H-isoindol-1-yl]-1H-benzimidazol-2-yl}carbamate], the IC50 in test [1] and in test [2] was less than 0.1 µM throughout.

On to `COC(=O)Nc1nc2cc(C3(O)c4ccccc4C(=O)N3c3ccc(F)c(Cl)c3)ccc2[nH]1` (stereo not drawn) [Entry 194, methyl {5-[2-(3-chloro-4-fluorophenyl)-1-hydroxy-3-oxo-2,3-dihydro-1H-isoindol-1-yl]-1H-benzimidazol-2-yl}carbamate], for which the IC50 in test [1] and in test [2] was less than 0.1 µM throughout.

As for `C=CCCOC(=O)Nc1nc2cc(C3(O)c4ccccc4C(=O)N3Cc3ccccc3)ccc2[nH]1` (stereo not drawn) [Entry 195, but-3-en-1-yl {5-[1-hydroxy-3-oxo-2-(phenylmethyl)-2,3-dihydro-1H-isoindol-1-yl]-1H-benzimidazol-2-yl}carbamate], the IC50 in test [1] and in test [2] was less than 0.1 µM each time.

For the compound `O=C(Nc1nc2cc(C3(O)c4ccccc4C(=O)N3Cc3ccccc3)ccc2[nH]1)OCC(F)(F)F` (stereo not drawn) [Entry 196, 2,2,2-trifluoroethyl {5-[1-hydroxy-3-oxo-2-(phenylmethyl)-2,3-dihydro-1H-isoindol-1-yl]-1H-benzimidazol-2-yl}carbamate], the IC50 in test [1] and in test [2] was less than 0.1 µM throughout.

Consider `COC(=O)Nc1nc2cc(C3(O)c4ccccc4C(=O)N3c3cc(Cl)ccc3F)ccc2[nH]1` (stereo not drawn) [Entry 197, methyl {5-[2-(5-chloro-2-fluorophenyl)-1-hydroxy-3-oxo-2,3-dihydro-1H-isoindol-1-yl]-1H-benzimidazol-2-yl}carbamate], for which the concentration for half-maximal inhibition (IC50) in test [1] and in test [2] was less than 0.1 µM in each case.

With `COC(=O)Nc1nc2cc(C3(O)c4ccccc4C(=O)N3C(C)c3cc(Cl)ccc3C)ccc2[nH]1` (stereo not drawn) [Entry 198, methyl (5-{2-[1-(5-chloro-2-methylphenyl)ethyl]-1-hydroxy-3-oxo-2,3-dihydro-1H-isoindol-1-yl}-1H-benzimidazol-2-yl)carbamate], the half-maximal inhibitory concentration (IC50) in test [1] and in test [2] was 1 to 10 µM in each case.

For `CC[C@@H](c1ccccc1)N1C(=O)c2ccccc2C1(O)c1ccc2[nH]c(NC(=O)OC)nc2c1` (stereo partly drawn) [Entry 199, methyl (5-{1-hydroxy-3-oxo-2-[(1S)-1-phenylpropyl]-2,3-dihydro-1H-isoindol-1-yl}-1H-benzimidazol-2-yl)carbamate], the half-maximal inhibitory concentration (IC50) in test [1] and in test [2] was 1 to 10 µM throughout.

For the compound `COC(=O)Nc1nc2cc(C3(O)c4ccccc4C(=O)N3C(C)c3cccc(Cl)c3C)ccc2[nH]1` (stereo not drawn) [Entry 200, methyl (5-{2-[1-(3-chloro-2-methylphenyl)ethyl]-1-hydroxy-3-oxo-2,3-dihydro-1H-isoindol-1-yl}-1H-benzimidazol-2-yl)carbamate], the IC50 in test [1] and in test [2] was 1 to 10 µM in each case.

For `COC(=O)Nc1nc2cc(C3(O)c4ccccc4C(=O)N3C(C)c3ccc(C)s3)ccc2[nH]1` (stereo not drawn) [Entry 201, methyl (5-{1-hydroxy-2-[1-(5-methyl-2-thienyl)ethyl]-3-oxo-2,3-dihydro-1H-isoindol-1-yl}-1H-benzimidazol-2-yl)carbamate], the IC50 in test [1] and in test [2] was less than 0.1 µM in each case.

Turning to `COC(=O)Nc1nc2cc(C3(O)c4ccccc4C(=O)N3C(C)c3ccc(Cl)s3)ccc2[nH]1` (stereo not drawn) [Entry 202, methyl (5-{2-[1-(5-chloro-2-thienyl)ethyl]-1-hydroxy-3-oxo-2,3-dihydro-1H-isoindol-1-yl}-1H-benzimidazol-2-yl)carbamate], the 50% inhibitory concentration (IC50) in test [1] and in test [2] was less than 0.1 µM each time.

On to `COC(=O)Nc1nc2cc(C3(O)c4ccccc4C(=O)N3c3cccc(I)c3)ccc2[nH]1` (stereo not drawn) [Entry 203, methyl {5-[1-hydroxy-2-(3-iodophenyl)-3-oxo-2,3-dihydro-1H-isoindol-1-yl]-1H-benzimidazol-2-yl}carbamate], for which the half-maximal inhibitory concentration (IC50) in test [1] and in test [2] was less than 0.1 µM each time.

Regarding `COC(=O)Nc1nc2cc(C3(O)c4ccccc4C(=O)N3c3cccc(C(C)C)c3)ccc2[nH]1` (stereo not drawn) [Entry 204, methyl (5-{1-hydroxy-2-[3-(1-methylethyl)phenyl]-3-oxo-2,3-dihydro-1H-isoindol-1-yl}-1H-benzimidazol-2-yl)carbamate], the concentration for half-maximal inhibition (IC50) in test [1] and in test [2] was less than 0.1 µM throughout.
